Test results: US8722731B2, “Furanyl compounds and the use thereof” (NovoMedix, LLC, priority 2010, dated 2014)

Experiments:
BxPc-3 = assay: IC50 cell-based assay, adherent cells, BxPc-3; conditions: Homo sapiens, Pancreas, adenocarcinoma, 72 hours, read-out: IC50 of Compounds in Adherent Cell Types
Procedure: (§1) In one embodiment, the IC50s of the compounds provided herein were determined in cell-based assays using adherent cells. In one embodiment, the activity of the compounds provided herein were determined in a cell-based assay using the triple negative breast cancer cell line MDA-MB-468. In one embodiment, the adherent cells used in the cell-based assays may be a cell type selected from Table 1. In one embodiment, the cell-based assay may be carried out as provided herein. On day 0, cells were seeded at 20,000 cells per well in 100 µL of media into individual wells of a 96-well tissue culture plate. The next day, compounds were diluted to twice the desired final concentration and added in 100 µL of media for a final volume of 200 μL. Standard solutions for each compound were prepared at 1000× concentration in DMSO. The highest concentration was 30 mM. Serial 1:1 dilutions were made from there for a 6- or 9-point curve (e.g., 30 mM, 15 mM, 7.5 mM, etc). Compounds were then diluted 1:500 in media, and 100 µL of the resulting solution was added to each well for a final dilution of 1:1000. […] Cells were placed back in the incubator, and the absorbance at 490 nm was read after 2-3 hours. […] “Percent Viability” was determined by subtracting the average background value (media only) and expressed as a ratio to the average value obtained from cells treated with only DMSO.

HEK-293 = assay: IC50 cell-based assay, adherent cells, HEK-293; conditions: Homo sapiens, HEK293, Kidney, embryonic, 72 hours, read-out: IC50 of Compounds in Adherent Cell Types
Procedure: as §1

Molt-4 = assay: IC50 cell-based assay, suspension cells, Molt-4; conditions: Homo sapiens, Leukemia, ALL, read-out: IC50 of Compounds in Suspension Cell Types
Procedure: (§2) In one embodiment, the IC50s of the compounds provided herein were determined in cell-based assays using adherent cells. In one embodiment, the activity of the compounds provided herein were determined in a cell-based assay using the triple negative breast cancer cell line MDA-MB-468. In one embodiment, the adherent cells used in the cell-based assays may be a cell type selected from Table 1. In one embodiment, the cell-based assay may be carried out as provided herein. On day 0, cells were seeded at 20,000 cells per well in 100 µL of media into individual wells of a 96-well tissue culture plate. The next day, compounds were diluted to twice the desired final concentration and added in 100 µL of media for a final volume of 200 μL. […] Cells were placed back in the incubator, and the absorbance at 490 nm was read after 2-3 hours. […] “Percent Viability” was determined by subtracting the average background value (media only) and expressed as a ratio to the average value obtained from cells treated with only DMSO.
(§3) In one embodiment, the IC50s of the compounds provided herein were determined in cell-based assays using suspension cells. In one embodiment, the activity of the compounds provided herein were determined in a cell-based assay using the JeKo-1 cell line (mantle cell lymphoma) or the Pfeiffer cell line (diffuse large B-cell lymphoma). […]

MDA-MB-415 = assay: IC50 cell-based assay, adherent cells, MDA-MB-415; conditions: Homo sapiens, Breast, adenocarcinoma, 72 hours, read-out: IC50 of Compounds in Adherent Cell Types
Procedure: as §1

SEMK = assay: IC50 cell-based assay, suspension cells, SEMK; conditions: Leukemia, read-out: IC50 of Compounds in Suspension Cell Types
Procedure: as §2, §3

MDA-MB-435 = assay: IC50 cell-based assay, adherent cells, MDA-MB-435; conditions: Homo sapiens, Breast, carcinoma—ductal, 72 hours, read-out: IC50 of Compounds in Adherent Cell Types
Procedure: as §1

K562 = assay: IC50 cell-based assay, suspension cells, K562; conditions: Homo sapiens, Leukemia, CML, read-out: IC50 of Compounds in Suspension Cell Types
Procedure: as §2, §3

MS1 = assay: IC50 cell-based assay, adherent cells, MS1; conditions: Mus musculus, MS-1, Pancreas, angiosarcoma, 72 hours, read-out: IC50 of Compounds in Adherent Cell Types
Procedure: as §1

Du145 = assay: IC50 cell-based assay, adherent cells, Du145; conditions: Homo sapiens, DU-145, Prostate, carcinoma, 72 hours, read-out: IC50 of Compounds in Adherent Cell Types
Procedure: as §1

IC50 (BxPc-3): 5 to 10 µM
IC50 (Molt-4): < 5 µM
IC50 (MDA-MB-415): < 5 µM
IC50 (SEMK): < 5 µM
IC50 (MDA-MB-435): < 5 µM
IC50 (K562): < 5 µM
IC50 (MS1): < 5 µM
IC50 (Du145): 5 to 10 µM
Structure (SMILES): O=C(Nc1cc(C(F)(F)F)cc(C(F)(F)F)c1)c1cc(-c2ccccc2)oc1C(F)(F)F [Compound 1, 5-Phenyl-2-trifluoromethyl-furan-3-carboxylic acid (3,5-bis-trifluoromethyl-phenyl)-amide]
IC50 (HEK-293): < 5 µM
